Reference: patent publication US8859235B2, “Methods in cell cultures, and related inventions, employing certain additives” (priority 2009, dated 2014)

Experiments:
E. coli BL21 = test: Time course of growth and GFP expression in E. coli BL21 in high cell density fed-batch cultivation in mineral medium; type: cell-based, Escherichia coli; conditions: for RFU/OD / OD: additive 5 mM; for OD Factor / RFU/OD Factor: additive vs control
Method: (§1) The measurement of GFP expression by whole cell fluorescence measurements follows the procedure of Scholz et al. (Eur. J. Biochem., 2000,267, 1565-1570). Frozen cell pellets are thawed, resuspended in 1 mL PBS [NaCl (8 g/L), KCl (0.2), of Na2HPO4 (1.44), KH2PO4 (0.24), adjusted to pH 7.4] and subsequently diluted to an optical density of 0.1. GFP fluorescence of whole cells is measured in a Eclipse Fluorometer (Varian) with an excitation wavelength of 400 nm and an emission wavelength of 512 nm. Specific relative fluorescence [RFU/OD600] is calculated by dividing the relative fluorescence emmision units by the optical density of the suspension at 600 nm.
(§2) E. coli BL21 [Novagen, Madison, USA; Genotype: E ompT hsdSB (rB^− mB^−) gal dcm (DE3)] harboring the plasmid pET28a-GFPuv was constructed as detailed in Example 2. A first preculture is initiated from glycerol stocks stored at −80° C. in 3 mL of LB medium containing 0.01% (v/v) Antifoam A (Fluke). After growth for 10-12 h it is used to seed 2×100 mL of mineral medium (as described in Example 1) containing 0.01% Antifoam A (silicone fluid containing a suspension of finely powdered silica to enhance its defoaming efficiency; Dow Corning Corporation, Midland, Mich., USA), in 1 L baffled shake flasks. After 10-12 h this culture is centrifuged, resuspended in 50 mL mineral medium and is used to inoculate the main culture.
(§3) Cultivation is performed in BioFlow110 bioreactors (Total volume 2.2 L; New Brunswick Scientific, Nürtingen, Germany) filled with 1 L of mineral medium plus 0.01% (v/v) Antifoam A for the batch phase. Reactors are equipped with pH, pO2 and foam probes, mass flow controllers to control gas flow and ratio of air and pure oxygen and pumps for automated dosage of base (14% [v/v] aqueous NH3), antifoam (25% [v/v] Antifoam A) and nutrient feed solution. The agitation is set to 500 rpm and air is supplied at a gas flow rate of 2 L/min. The fedbatch culture is inoculated to an OD600 of 0.25-0.5 and allowed to grow unlimited with a specific growth rate of ˜0.5 h^−1. Growth is monitored by measuring OD600. When the dissolved oxygen concentration decreases to 30%, automated adjustment of the air:oxygen ratio in the gas mix is started to control dO2 to 30% using a PID loop. When the gas mix consisted of 100% oxygen a further increase in oxygen transfer is achieved through increasing the agitation rate up to a maximum level of 1200 rpm. When glycerol in the batch medium is completely consumed, as indicated by a distinct drop of pure oxygen in the gas mix, feeding solutions (first containing 70 g/L glycerol and later as cell density increased 200 g/L glycerol in mineral medium) are pumped into the reactor by a predefined exponential fed scheme. The feeding rate is calculated to allow the cells to grow at a growth rate of approximately 0.15 h^−1. During the feeding phase dO2 is also kept at 30%. 3-6 h after starting the feeding protein expression is induced by the addition of 0.2 (w/v) L-arabinose. Samples are taken every hour for OD600 reading and to obtain cell pellets which are stored at −20° C. for further analysis. Analysis of in vivo GFP fluorescence is performed by the method described in Example 1.

E. coli JM109 = test: Growth and GFP expression in high cell density fedbatch cultivation of E. coli JM109 in mineral medium; type: cell-based, Escherichia coli; conditions: for Optical density Value / GFP expression (RFU/OD600) Value: additive 5 mM
Method: as §1
as §2, with “A first preculture of E.” for “E.”, “JM109” for “BL21 [Novagen, Madison, USA; Genotype: E ompT hsdSB (rB^− mB^−) gal dcm (DE3)]”, “pBAD-GFPuv” for “pET28a-GFPuv was constructed as detailed in Example 2. A first preculture”, “(Fluka).” for “(Fluke).”, “centrifuged” for “centrifuged,”
as §3, with “incoculated” for “inoculated”, “disolved” for “dissolved”

[1] = cultivation time 16.5 h, 2.5 h after induction
[2] = cultivation time 20.8 h, 6.0 h after induction
[3] = cultivation time 32.5 h, 18 h after induction
[4] = Experiment 1, process time 26.75 h, relative to control = 1

CC1(C)CC(O)CC(C)(C)N1[O] [4-Hydroxy-2,2,6,6-tetramethylpiperidin-1-oxyl]
RFU/OD (E. coli BL21; cultivation time 16.5 h, 2.5 h after induction, control 9.1): 107.9 RFU/OD
OD (E. coli BL21; cultivation time 16.5 h, 2.5 h after induction, control 30.11): 43.57 OD
OD Factor (E. coli BL21; [1]): 1.45
RFU/OD Factor (E. coli BL21; [1]): 11.86
OD (E. coli BL21; cultivation time 20.8 h, 6.0 h after induction, control 48.46): 68.52 OD
RFU/OD (E. coli BL21; cultivation time 20.8 h, 6.0 h after induction, control 264.7): 678.8 RFU/OD
OD Factor (E. coli BL21; [2]): 1.41
RFU/OD Factor (E. coli BL21; [2]): 2.56
OD (E. coli BL21; cultivation time 32.5 h, 18 h after induction, control 83.39): 94.75 OD
RFU/OD (E. coli BL21; cultivation time 32.5 h, 18 h after induction, control 486.5): 873 RFU/OD
OD Factor (E. coli BL21; [3]): 1.14
RFU/OD Factor (E. coli BL21; [3]): 1.79
Optical density Value (E. coli JM109; Experiment 1, process time 26.75 h, control 9.86): 11.86
GFP expression (RFU/OD600) Value (E. coli JM109; Experiment 1, process time 26.75 h, control 211): 535 RFU/OD600
GFP expression Factor (E. coli JM109; [4]): 2.53
Optical density Factor (E. coli JM109; [4]): 1.20
GFP expression (RFU/OD600) Value (E. coli JM109; Experiment 2, process time 18 h, control 0): 190 RFU/OD600
Optical density Value (E. coli JM109; Experiment 2, process time 18 h, control 6.67): 11.42
Optical density Factor (E. coli JM109; Experiment 2, process time 18 h, relative to control = 1): 1.7
